pIC50: −log10 of the molar value. Active and inactive are the calls of the source. The rule behind the calls is not given here.
What was measured:
[1] = tested on: Human immunodeficiency virus 1; experiment: Antiviral activity against HIV1 3B infected human TZM-bl cells assessed as inhibition of viral replication by luciferase reporter assay; format: functional, organism-based; conditions: for IC50: tzm-bl; for pIC50: Human immunodeficiency virus 1, 3B, TZM-bl, read-out: IC50
[2] = Cytotoxicity in human TZM-bl cells by MTT assay; format: cell-based
Albumin = Albumin (Homo sapiens, UniProt P02768); experiment: Binding affinity to human serum albumin by fluorescence quenching assay; format: ADME; conditions: isolated protein
Influenza A virus = experiment: Antiviral activity against Influenza A virus (A/Vietnam/1194/2004(H5N1)) infected in MDCK cells assessed as inhibition of viral replication by plaque reduction assay; format: functional, organism-based
[3] = Cytotoxicity against MDCK cells by MTT assay; format: cell-based, Canis lupus familiaris; conditions: dog
[4] = Selectivity index, ratio of CC50 for MDCK cells to IC50 for Influenza A virus (A/Vietnam/1194/2004(H5N1)); format: functional
[5] = Selectivity index, ratio of CC50 for human TZM-bl cells to IC50 for HIV1 3B; format: functional
[6] = tested on: Human immunodeficiency virus 1; experiment: Antiviral activity against HIV1 3B infected human TZM-bl cells assessed as inhibition of viral replication at 10 uM treated immediately after infection by luciferase reporter assay; format: functional, organism-based
[7] = tested on: Human immunodeficiency virus 1; experiment: Antiviral activity against HIV1 3B infected human TZM-bl cells assessed as inhibition of viral replication at 10 uM treated 2 hrs after viral infection by luciferase reporter assay; format: functional, organism-based

Chain of Albumin (P02768 whole entry): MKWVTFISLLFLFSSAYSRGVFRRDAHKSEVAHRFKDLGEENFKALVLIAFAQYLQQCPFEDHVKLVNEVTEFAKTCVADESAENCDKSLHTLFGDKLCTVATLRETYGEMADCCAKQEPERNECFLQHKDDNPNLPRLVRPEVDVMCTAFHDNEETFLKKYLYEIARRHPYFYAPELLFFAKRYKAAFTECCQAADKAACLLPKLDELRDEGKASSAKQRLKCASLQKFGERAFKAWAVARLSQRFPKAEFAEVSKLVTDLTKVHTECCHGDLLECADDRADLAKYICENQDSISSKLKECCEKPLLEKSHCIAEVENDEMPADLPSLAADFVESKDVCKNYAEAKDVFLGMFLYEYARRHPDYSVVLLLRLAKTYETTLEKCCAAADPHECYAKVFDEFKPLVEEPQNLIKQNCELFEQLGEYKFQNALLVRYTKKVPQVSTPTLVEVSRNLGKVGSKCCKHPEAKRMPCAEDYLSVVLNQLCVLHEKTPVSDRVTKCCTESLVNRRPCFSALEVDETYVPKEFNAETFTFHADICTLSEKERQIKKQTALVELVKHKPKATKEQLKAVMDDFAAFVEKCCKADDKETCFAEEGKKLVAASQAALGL

Row | Compound | IC50 [1] | CC50 [2] | Ka (Albumin) | pIC50 (Influenza A virus) | CC50 [3] | Ratio CC50/IC50 [4] | pIC50 [1] | Ratio CC50/IC50 [5] | inhibition [6] | inhibition [7]
1 | COC(=O)C(N/C=C1\C(=O)C(O)=C(C(C)C)c2cc(C)c(-c3c(C)cc4c(c3O)/C(=C/NC(C(=O)OC)c3ccccc3)C(=O)C(O)=C4C(C)C)c(O)c21)c1ccccc1 (centres undefined) | Not Active | 31.5 µM | 4.2658 ×10⁴ L/mol | 5.09 | > 41.1 µM | >5 |  |  |  | 
2 | COC(=O)[C@H](Cc1c[nH]c2ccccc12)N/C=C1\C(=O)C(O)=C(C(C)C)c2cc(C)c(-c3c(C)cc4c(c3O)/C(=C/N[C@@H](Cc3c[nH]c5ccccc35)C(=O)OC)C(=O)C(O)=C4C(C)C)c(O)c21 | Not Active | 22 µM | 2.262 ×10³ L/mol | 5.14 | > 36.3 µM | >5 |  |  |  | 
3 | Cc1cc2c(c(O)c1-c1c(C)cc3c(c1O)/C(=C/NC(C(=O)[O-])c1ccc(O)cc1)C(=O)C(O)=C3C(C)C)/C(=C/NC(C(=O)[O-])c1ccc(O)cc1)C(=O)C(O)=C2C(C)C.[Na+].[Na+] (centres undefined) |  | 22.2 µM | 2.1607 ×10⁴ L/mol | 5.11 | > 38.8 µM | >5 | 5.87 | 16.54 |  | 
4 | Cc1cc2c(c(O)c1-c1c(C)cc3c(c1O)/C(=C/NCCCCC(=O)[O-])C(=O)C(O)=C3C(C)C)/C(=C/NCCCCC(=O)[O-])C(=O)C(O)=C2C(C)C.[Na+].[Na+] |  | 32.9 µM | 2.4288 ×10⁴ L/mol | 4.71 | > 43.8 µM | >2.25 | 5.77 | 19.25 |  | 
5 | Cc1cc2c(c(O)c1-c1c(C)cc3c(c1O)/C(=C/N[C@H](C(=O)[O-])c1ccccc1)C(=O)C(O)=C3C(C)C)/C(=C/N[C@H](C(=O)[O-])c1ccccc1)C(=O)C(O)=C2C(C)C.[Na+].[Na+] |  | 29.9 µM | 1.4015 ×10⁴ L/mol | 5.09 | > 40.3 µM | >5 | 5.84 | 20.64 |  | 
6 | COC(=O)[C@H](C)N/C=C1\C(=O)C(O)=C(C(C)C)c2cc(C)c(-c3c(C)cc4c(c3O)/C(=C/N[C@@H](C)C(=O)OC)C(=O)C(O)=C4C(C)C)c(O)c21 | Not Active | 25.6 µM | 1.0413 ×10⁴ L/mol | 5.94 | > 48.5 µM | >41.77 |  |  |  | 
7 | Cc1cc2c(c(O)c1-c1c(C)cc3c(c1O)/C(=C/NCCS(=O)(=O)[O-])C(=O)C(O)=C3C(C)C)/C(=C/NCCS(=O)(=O)[O-])C(=O)C(O)=C2C(C)C.[Na+].[Na+] [MEGOSIN] |  | 53.4 µM | 1.7559 ×10⁴ L/mol | 5.07 | > 43 µM | >5 | 5.91 | 43.03 |  | 
8 | enfuvirtide |  |  |  |  |  |  | 7.01 |  | Active | inactive
9 | Cc1cc2c(c(O)c1-c1c(C)cc3c(c1O)/C(=C/N[C@@H](CC(C)C)C(=O)[O-])C(=O)C(O)=C3C(C)C)/C(=C/N[C@@H](CC(C)C)C(=O)[O-])C(=O)C(O)=C2C(C)C.[Na+].[Na+] |  | 42.8 µM | 1.3483 ×10⁴ L/mol | 5.07 | > 47.4 µM | >5.6 | 5.86 | 31.26 |  | 
10 | Cc1cc2c(C(C)C)c(O)c(O)c(/C=N/[C@@H](Cc3ccccc3)C(=O)[O-])c2c(O)c1-c1c(C)cc2c(C(C)C)c(O)c(O)c(/C=N/[C@@H](Cc3ccccc3)C(=O)[O-])c2c1O.[Na+].[Na+] |  | 57.1 µM | 1.2835 ×10⁵ L/mol | 5.11 | > 38.9 µM | >5 | 5.75 | 32.27 |  | 
11 | Cc1cc2c(c(O)c1-c1c(C)cc3c(c1O)/C(=C/NCCCCCC(=O)[O-])C(=O)C(O)=C3C(C)C)/C(=C/NCCCCCC(=O)[O-])C(=O)C(O)=C2C(C)C.[Na+].[Na+] |  | 31.8 µM | 3.2203 ×10⁴ L/mol | 4.37 | > 42.3 µM | >1 | 5.68 | 15.19 |  | 
12 | Cc1cc2c(c(O)c1-c1c(C)cc3c(c1O)/C(=C/N[C@@H](CS)C(=O)[O-])C(=O)C(O)=C3C(C)C)/C(=C/N[C@@H](CS)C(=O)[O-])C(=O)C(O)=C2C(C)C.[Na+].[Na+] |  | 16.5 µM | 8.2016 ×10³ L/mol | 4.36 | > 43.4 µM | >1 | 5.43 | 4.42 |  | 
13 | Cc1cc2c(c(O)c1-c1c(C)cc3c(c1O)/C(=C/N[C@@H](Cc1ccc(O)cc1)C(=O)[O-])C(=O)C(O)=C3C(C)C)/C(=C/N[C@@H](Cc1ccc(O)cc1)C(=O)[O-])C(=O)C(O)=C2C(C)C.[Na+].[Na+] |  | 54.8 µM | 7.5353 ×10⁴ L/mol | 4.43 | > 37.5 µM | >1 | 5.79 | 33.81 |  | 
14 | Cc1cc2c(c(O)c1-c1c(C)cc3c(c1O)/C(=C/N[C@@H](Cc1c[nH]cn1)C(=O)[O-])C(=O)C(O)=C3C(C)C)/C(=C/N[C@@H](Cc1c[nH]cn1)C(=O)[O-])C(=O)C(O)=C2C(C)C.[Na+].[Na+] |  | 51.2 µM | 6.7205 ×10⁴ L/mol | 4.38 | > 41.2 µM | >1 | 5.80 | 32.38 |  | 
15 | CCOC(=O)CN/C=C1\C(=O)C(O)=C(C(C)C)c2cc(C)c(-c3c(C)cc4c(c3O)/C(=C/NCC(=O)OCC)C(=O)C(O)=C4C(C)C)c(O)c21 | Not Active | 25.7 µM | 1.9028 ×10² L/mol | 5.01 | > 48.5 µM | >5 |  |  |  | 
16 | Cc1cc2c(c(O)c1-c1c(C)cc3c(c1O)/C(=C/NC(C(=O)[O-])c1ccc(Cl)cc1)C(=O)C(O)=C3C(C)C)/C(=C/NC(C(=O)[O-])c1ccc(Cl)cc1)C(=O)C(O)=C2C(C)C.[Na+].[Na+] (centres undefined) |  | 21.9 µM | 1.2868 ×10⁴ L/mol | 4.67 | > 37.2 µM | >1.73 | 5.89 | 17.12 |  | 
17 | Cc1cc2c(c(O)c1-c1c(C)cc3c(c1O)/C(=C/NCC(=O)[O-])C(=O)C(O)=C3C(C)C)/C(=C/NCC(=O)[O-])C(=O)C(O)=C2C(C)C.[Na+].[Na+] |  |  | 1.2462 ×10⁴ L/mol | 5.01 | > 49.3 µM | >5 |  |  |  | 
18 | Cc1cc2c(c(O)c1-c1c(C)cc3c(c1O)/C(=C/N[C@@H](CO)C(=O)[O-])C(=O)C(O)=C3C(C)C)/C(=C/N[C@@H](CO)C(=O)[O-])C(=O)C(O)=C2C(C)C.[Na+].[Na+] |  | 68.3 µM | 5.7756 ×10⁴ L/mol | 4.34 | > 45.3 µM | >1 | 5.54 | 23.72 |  | 
19 | Cc1cc2c(c(O)c1-c1c(C)cc3c(c1O)/C(=C/NCCCCCCCC(=O)[O-])C(=O)C(O)=C3C(C)C)/C(=C/NCCCCCCCC(=O)[O-])C(=O)C(O)=C2C(C)C.[Na+].[Na+] |  | 29.6 µM | 2.8629 ×10⁴ L/mol | 4.40 | > 39.5 µM | >1 | 5.55 | 10.44 |  | 
20 | CC(=O)N[C@H]1[C@H]([C@H](O)[C@H](O)CO)OC(C(=O)O)=C[C@@H]1NC(=N)N [ZANAMIVIR] |  |  |  | 6.92 | > 100 µM | >836 |  |  |  | 
21 | COC(=O)[C@H](CC(C)C)N/C=C1\C(=O)C(O)=C(C(C)C)c2cc(C)c(-c3c(C)cc4c(c3O)/C(=C/N[C@@H](CC(C)C)C(=O)OC)C(=O)C(O)=C4C(C)C)c(O)c21 | Not Active | 33.6 µM | 7.1236 ×10³ L/mol | 5.06 | > 42.8 µM | >5 |  |  |  | 
22 | NC12CC3CC(CC(C3)C1)C2 [AMANTADINE] |  |  |  | 5.62 | > 220 µM | >92.59 |  |  |  | 

Source: ChEMBL document CHEMBL1949531, “Synthesis and antiviral activities of novel gossypol derivatives” (Bioorg Med Chem Lett, 2012)
